Test results taken from patent US20210023223A1, “HYDROCARBON / LIPID - CAROTENOID COMPLEXES” (IP SCIENCE LIMITED, priority 2018, published 2021).

Columns and labels:
[1] = Acid induced degradation at pH 2.5, gas chromatography; type: physicochemical
Method: Briefly, 100 μl of serum and 2 ml of the stock solution were combined in screw-capped glass tubes. The tubes were capped and heated at 100 C for 60 min. The tubes were allowed to cool down to the room temperature and were extracted twice with 1 ml hexane. The combined hexane solution was evaporated under vacuum (Scan Speed 32 centrifuge) and the residue reconstituted to the volume of 50 μl with of hexane, transferred to GC vials, and capped under nitrogen.
Temperature program, initial: 130 C with a 4 min hold; ramp: 4 C/min to 280 C with a 2 min hold. Carrier gas was He, with a linear velocity of 30 cm/s. Fatty acid analysis was performed by injection of 1 μl of each sample at a split ratio of 50:1. The FID and the Injection port temperature was 300 C. The sampling frequency was 40 Hz. Fatty acids identification was performed with SUPELCO 37 COMPONENT FAME MIX (Supelco, USA). DHA concentrations were calculated on the basis of the standard concentrations. Analytical standard of DHA and PTC (Sigma, USA) were used in the assay.

[2] = system: individuals with a moderate hyperlipidemia; test: Clinical Trial DHA-Lycopene, 4 weeks; type: in vivo, human; details: for LDL / Triglycerides: medians, DHA 250 mg and/or lycopene 7 mg once a day
Method: To validate this, a clinical trial was undertaken. 32 individuals aged 40-65 years old with a moderate hyperlipidemia (serum triglycerides, TG, >150 mg/dl and LDL from 130 to 160 mg/dl). They were randomised and split in four groups of 8: • The first was supplemented with a 250 mg of conventional formulation of DHA without lycopene (CF-DHA), • the second with 7 mg of lycopene, • the third with 250 mg of DHA and 7 mg of lycopene co-ingested at the same time but as two separate products, and • the fourth group received 7 mg lycopene formulated with 250 mg of DHA (LF-DHA). All products were taken once a day with the main meal. The duration of the trial was for 4 weeks.

Melting time at 37° C. = type: physicochemical; details: 1 mg per 1 g of the chocolate; control 19 minutes
Method: Approximately 20 mg of butter, or pork fat, or beef fat, or cocoa butter, or chocolate, with or without certain concentrations of carotenoids, were placed on the surface of the laboratory slides and incubated at 37° C. in a laboratory incubator (TLK39).
Results presented in FIG. 15 show three different carotenoids—lycopene, lutein and astaxanthin, can reduce, albeit to a different degree, the melting time of dark chocolate regardless of its tempering protocols: Protocol I—28° C., Protocol II—29° C., Protocol III—30° C.

[3] = DHA preparation with lycopene 1 mg per 1 g of DHA
[4] = DHA preparation without lycopene

CCCCCCCCCCCC(=O)O [Lauric]
GC peak Area, %, After 2 hours at pH 2.5 [1, 3]: 0.15% | GC peak Area, %, Baseline [1, 3]: 0.14% | GC peak Area, After 2 hours at pH 2.5 [1, 3]: 1,605 | GC peak Area, Baseline [1, 3]: 1,354 | GC peak Area, %, Baseline [1, 4]: 0.16% | GC peak Area, Baseline [1, 4]: 1,718

CCCCCC(=O)O [Caproic]
GC peak Area, %, Baseline [1, 4]: 1.31% | GC peak Area, Baseline [1, 4]: 13,975

CCC=CCC=CCC=CCC=CCC=CC/C=C\CCC(=O)O [cis-4,7,10,13,16,19-Docosahexaenoic]
GC peak Area, %, After 2 hours at pH 2.5 [1, 3]: 43.60% | GC peak Area, %, Baseline [1, 3]: 42.55% | GC peak Area, After 2 hours at pH 2.5 [1, 3]: 464,051 | GC peak Area, Baseline [1, 3]: 409,974 | GC peak Area, %, After 2 hours at pH 2.5 [1, 4]: 43.54% | GC peak Area, %, Baseline [1, 4]: 42.63% | GC peak Area, After 2 hours at pH 2.5 [1, 4]: 292,485 | GC peak Area, Baseline [1, 4]: 456,572

Linole/alpha-linilenic
GC peak Area, %, After 2 hours at pH 2.5 [1, 3]: 6.42% | GC peak Area, %, Baseline [1, 3]: 6.63% | GC peak Area, After 2 hours at pH 2.5 [1, 3]: 68,330 | GC peak Area, Baseline [1, 3]: 63,846 | GC peak Area, %, After 2 hours at pH 2.5 [1, 4]: 6.72% | GC peak Area, %, Baseline [1, 4]: 6.53% | GC peak Area, After 2 hours at pH 2.5 [1, 4]: 45112 | GC peak Area, Baseline [1, 4]: 69,917

CCCC/C=C\CCCCCCCC(=O)O [Myristoleic]
GC peak Area, %, After 2 hours at pH 2.5 [1, 3]: 0.17% | GC peak Area, %, Baseline [1, 3]: 0.17% | GC peak Area, After 2 hours at pH 2.5 [1, 3]: 1,789 | GC peak Area, Baseline [1, 3]: 1,662 | GC peak Area, %, After 2 hours at pH 2.5 [1, 4]: 0.18% | GC peak Area, %, Baseline [1, 4]: 0.18% | GC peak Area, After 2 hours at pH 2.5 [1, 4]: 1,197 | GC peak Area, Baseline [1, 4]: 1,934

CCCCC/C=C\C/C=C\C/C=C\C/C=C\CCCC(=O)O [Arachidonic]
GC peak Area, %, After 2 hours at pH 2.5 [1, 3]: 0.81% | GC peak Area, %, Baseline [1, 3]: 0.82% | GC peak Area, After 2 hours at pH 2.5 [1, 3]: 8,565 | GC peak Area, Baseline [1, 3]: 7,859 | GC peak Area, %, After 2 hours at pH 2.5 [1, 4]: 0.79% | GC peak Area, %, Baseline [1, 4]: 0.83% | GC peak Area, After 2 hours at pH 2.5 [1, 4]: 5323 | GC peak Area, Baseline [1, 4]: 8,907

cis-8,11,14,17-eicosapentaenoic
GC peak Area, %, After 2 hours at pH 2.5 [1, 3]: 0.55% | GC peak Area, %, Baseline [1, 3]: 0.46% | GC peak Area, After 2 hours at pH 2.5 [1, 3]: 5,889 | GC peak Area, Baseline [1, 3]: 4,391 | GC peak Area, %, After 2 hours at pH 2.5 [1, 4]: 0.42% | GC peak Area, %, Baseline [1, 4]: 0.47% | GC peak Area, After 2 hours at pH 2.5 [1, 4]: 2800 | GC peak Area, Baseline [1, 4]: 5,002

CCC=CCC=CCC=CCC=CC/C=C\CCCC(=O)O [cis-5,8,11,14,17-eicosapentaenoic]
GC peak Area, %, After 2 hours at pH 2.5 [1, 3]: 1.01% | GC peak Area, %, Baseline [1, 3]: 1.03% | GC peak Area, After 2 hours at pH 2.5 [1, 3]: 10,759 | GC peak Area, Baseline [1, 3]: 9,937 | GC peak Area, %, After 2 hours at pH 2.5 [1, 4]: 0.99% | GC peak Area, %, Baseline [1, 4]: 1.07% | GC peak Area, After 2 hours at pH 2.5 [1, 4]: 6679 | GC peak Area, Baseline [1, 4]: 11,447

CCCCCCCCCCCCCC(=O)O [Myristic]
GC peak Area, %, After 2 hours at pH 2.5 [1, 3]: 6.56% | GC peak Area, %, Baseline [1, 3]: 6.42% | GC peak Area, After 2 hours at pH 2.5 [1, 3]: 69,816 | GC peak Area, Baseline [1, 3]: 61,814 | GC peak Area, %, After 2 hours at pH 2.5 [1, 4]: 6.42% | GC peak Area, %, Baseline [1, 4]: 6.23% | GC peak Area, After 2 hours at pH 2.5 [1, 4]: 43,118 | GC peak Area, Baseline [1, 4]: 73,096

CCCCCC/C=C\CCCCCCCC(=O)O [Palmitoleic]
GC peak Area, %, After 2 hours at pH 2.5 [1, 3]: 0.16% | GC peak Area, %, Baseline [1, 3]: 0.17% | GC peak Area, After 2 hours at pH 2.5 [1, 3]: 1,710 | GC peak Area, Baseline [1, 3]: 1,598 | GC peak Area, %, After 2 hours at pH 2.5 [1, 4]: 0.19% | GC peak Area, %, Baseline [1, 4]: 0.11% | GC peak Area, After 2 hours at pH 2.5 [1, 4]: 1,278 | GC peak Area, Baseline [1, 4]: 1,219

CC/C=C\C/C=C\C/C=C\C/C=C\C/C=C\C/C=C\CCC(=O)O [DHA, Doxosahexaenoic Acid]
LDL ([2]; 0 w): 155.5 mg/dL | Triglycerides ([2]; 0 w): 191.5 mg/dL | LDL ([2]; 4 w): 153.5 mg/dL | Triglycerides ([2]; 4 w): 185.5 mg/dL | Reduction of medians of serum TG concentration ([2]; 4 weeks): 27.5 mg/dL | Reduction in LDL ([2]; 4 weeks, p<0.05): 19.5 mg/dL

CCCCCCCCCCCCCCCCCCCC(=O)O [Arachidic]
GC peak Area, %, Baseline [1, 4]: 0.10% | GC peak Area, Baseline [1, 4]: 1,032

CCCCC/C=C\C/C=C\CCCCCCCC(=O)O [Linoleic]
GC peak Area, %, After 2 hours at pH 2.5 [1, 3]: 0.98% | GC peak Area, %, Baseline [1, 3]: 1.28% | GC peak Area, After 2 hours at pH 2.5 [1, 3]: 10,395 | GC peak Area, Baseline [1, 3]: 12,328 | GC peak Area, %, After 2 hours at pH 2.5 [1, 4]: 1.25% | GC peak Area, %, Baseline [1, 4]: 0.89% | GC peak Area, After 2 hours at pH 2.5 [1, 4]: 8396 | GC peak Area, Baseline [1, 4]: 9,494

CCCCCCCCCCCCCCCCCCCCCCCC(=O)O [Lignoceric]
GC peak Area, %, After 2 hours at pH 2.5 [1, 3]: 0.17% | GC peak Area, %, Baseline [1, 3]: 0.17% | GC peak Area, After 2 hours at pH 2.5 [1, 3]: 1,775 | GC peak Area, Baseline [1, 3]: 1,613 | GC peak Area, %, After 2 hours at pH 2.5 [1, 4]: 0.17% | GC peak Area, %, Baseline [1, 4]: 0.14% | GC peak Area, After 2 hours at pH 2.5 [1, 4]: 1162 | GC peak Area, Baseline [1, 4]: 1,518

CCCCCCCCCCCCCCCCCCCCCC(=O)O [Behenic]
GC peak Area, %, Baseline [1, 4]: 0.10% | GC peak Area, Baseline [1, 4]: 1,096

CCCCCCCC/C=C/CCCCCCCC(=O)O [Elaidic]
GC peak Area, %, After 2 hours at pH 2.5 [1, 3]: 0.21% | GC peak Area, %, Baseline [1, 3]: 0.26% | GC peak Area, After 2 hours at pH 2.5 [1, 3]: 2,205 | GC peak Area, Baseline [1, 3]: 2,537 | GC peak Area, %, After 2 hours at pH 2.5 [1, 4]: 0.24% | GC peak Area, %, Baseline [1, 4]: 0.20% | GC peak Area, After 2 hours at pH 2.5 [1, 4]: 1629 | GC peak Area, Baseline [1, 4]: 2,108

CCCCCCCCCCCCCCCC(=O)O [Palmitic]
GC peak Area, %, After 2 hours at pH 2.5 [1, 3]: 17.52% | GC peak Area, %, Baseline [1, 3]: 17.82% | GC peak Area, After 2 hours at pH 2.5 [1, 3]: 186,438 | GC peak Area, Baseline [1, 3]: 171,664 | GC peak Area, %, After 2 hours at pH 2.5 [1, 4]: 17.66% | GC peak Area, %, Baseline [1, 4]: 18.45% | GC peak Area, After 2 hours at pH 2.5 [1, 4]: 118,649 | GC peak Area, Baseline [1, 4]: 197,526

CC1=C[C@H](O)CC(C)(C)[C@H]1/C=C/C(C)=C/C=C/C(C)=C/C=C/C=C(C)/C=C/C=C(C)/C=C/C1=C(C)C[C@@H](O)CC1(C)C [Lutein, lutein]
Melting time of dark chocolate (Melting time at 37° C.): 6 min

CCCCCCCCCCCCCCC(=O)O [Pentadecanoic]
GC peak Area, %, After 2 hours at pH 2.5 [1, 3]: 0.27% | GC peak Area, %, Baseline [1, 3]: 0.26% | GC peak Area, After 2 hours at pH 2.5 [1, 3]: 2,843 | GC peak Area, Baseline [1, 3]: 2,511 | GC peak Area, %, After 2 hours at pH 2.5 [1, 4]: 0.26% | GC peak Area, %, Baseline [1, 4]: 0.29% | GC peak Area, After 2 hours at pH 2.5 [1, 4]: 1,716 | GC peak Area, Baseline [1, 4]: 3,120

CCCCC/C=C\C/C=C\C/C=C\CCCCC(=O)O [gamma-Linolenic]
GC peak Area, %, After 2 hours at pH 2.5 [1, 3]: 0.26% | GC peak Area, %, Baseline [1, 3]: 0.27% | GC peak Area, After 2 hours at pH 2.5 [1, 3]: 2,767 | GC peak Area, Baseline [1, 3]: 2,627 | GC peak Area, %, After 2 hours at pH 2.5 [1, 4]: 0.28% | GC peak Area, %, Baseline [1, 4]: 0.28% | GC peak Area, After 2 hours at pH 2.5 [1, 4]: 1,851 | GC peak Area, Baseline [1, 4]: 3,030

CCCCCCCCCCCCCCCCCC(=O)O [Stearic]
GC peak Area, %, After 2 hours at pH 2.5 [1, 3]: 0.64% | GC peak Area, %, Baseline [1, 3]: 0.69% | GC peak Area, After 2 hours at pH 2.5 [1, 3]: 6,811 | GC peak Area, Baseline [1, 3]: 6,673 | GC peak Area, %, After 2 hours at pH 2.5 [1, 4]: 0.68% | GC peak Area, %, Baseline [1, 4]: 0.66% | GC peak Area, After 2 hours at pH 2.5 [1, 4]: 4597 | GC peak Area, Baseline [1, 4]: 7,051
